The values that follow come from patent US8058243B2, “Method for treating a brain cancer with ifenprodil” (HSC Research and Development Limited Partnership, priority 2006, dated 2011).

This experiment relates to murine neural precursor cells (neurosphere cultures). As to the kind of experiment: HTS of LOPAC library against secondary neurosphere cultures, MTT proliferation assay at 3 μM, day 7 (z score, P value). Type of experiment: cell-based, mouse.
[1] abbreviates: LOPAC library screen, 3 μM, MTT, neurosphere cultures.
The mark [2] stands for this setting: LOPAC primary screen, neurosphere MTT proliferation, 3 μM, day 7.
The mark [3] stands for this setting: yes/no: significantly inhibited neurosphere proliferation in primary screen.
Where [4] appears, read: LOPAC library screen, 3 μM, MTT, secondary neurosphere cultures, day 7.
[5] abbreviates: yes = significantly inhibited neurosphere proliferation (P<0.01) in the primary screen.
The mark [6] stands for this setting: LOPAC library screen at 3 μM, secondary neurosphere cultures, MTT.
[7] abbreviates: primary LOPAC screen, 3 μM, MTT, neurosphere proliferation.
[8] abbreviates: yes/no: significantly inhibited neurosphere proliferation in the primary screen.
Setting [9] is: LOPAC screen, neurosphere MTT proliferation, 3 μM, day 7.
The mark [10] stands for this setting: yes/no: significantly inhibited neurosphere proliferation (P<0.01) in primary screen.
The mark [11] stands for this setting: yes/no: significantly inhibited neurosphere proliferation (P<0.01) in the primary screen.

Structures can show the parent of a compound that is named as a salt. Where two headings read alike, the source gives them in different places.

As for `Cl.Cl.Cl.NCCCCNCCCN` [Spermidine trihydrochloride], the “Z Score” value under setting [1] is given as 1.259. Under setting [2], this molecule came in with a Z score of 1.259. Further, the Activity entry under setting [3] is “no”.

As for `CCCCCN(CCCCC)C(=O)C(CCC(=O)O)NC(=O)c1ccc(Cl)c(Cl)c1` (stereo not shown) [Lorglumide sodium], the “Z Score” value under setting [4] is −2.092. The Z score under setting [2] is reported as −2.092. The Activity entry under setting [5] is listed as “no”.

Turning to NS 521 oxalate, the “Z Score” value is given as −11.27.

As for `CS(=O)(=O)Nc1ccc([N+](=O)[O-])cc1Oc1ccccc1` [Nimesulide], the Activity entry is reported as “yes”. The “Z Score” value under setting [4] is recorded as −2.395. Moreover, under setting [2], the Z score was −2.395.

As to `Cc1cn[nH]c1.Cl` [4-Methylpyrazole hydrochloride], the “Z Score” value was 1.042. In addition, the Z score under setting [2] was determined as 1.042. For the same molecule, the Activity entry under setting [5] was “no”.

Consider `Cl.O=C(CCCN1CCC2(CC1)C(=O)N(CCc1ccc(N=C=S)cc1)CN2c1ccccc1)c1ccc(F)cc1`, for which the “Z Score” value under setting [6] is reported as −0.4152. The molecule further yielded a Z score under setting [2] of −0.415. Moreover, the Activity entry under setting [5] was “no”.

In the case of `COc1cc(Cc2cnc(N)nc2N)cc(OC)c1OC` [Trimethoprim], the “Z Score” value under setting [4] is reported as −1.23. The same molecule showed a Z score under setting [7] of −1.230. For the same molecule, the Activity entry under setting [8] is reported as “no”.

As for `CC(=O)OCC(=O)[C@@]1(O)CC[C@H]2[C@@H]3CCC4=CC(=O)CC[C@]4(C)[C@H]3C(=O)C[C@@]21C` [Cortisone 21-acetate], under setting [4], the “Z Score” value is −2.218. The molecule further gave a Z score under setting [9] of −2.218. Moreover, under setting [10], the Activity result is listed as “no”.

In the case of `CNCC(O)c1ccc(O)cc1` (stereo not shown) [(B1)-Synephrine], the “Z Score” value is −0.1488.

On to `CC(N)=O` [Acetamide], for which, under “168 h, 3 µM”, the “Z Score” value is listed as −1.94 and the Z score was −1.940. Also, the Activity entry under setting [3] is reported as “no”.

In the case of `COc1cc(OC)cc(C(CNc2ncnc3c2ncn3[C@@H]2O[C@H](CO)[C@@H](O)[C@H]2O)c2ccccc2C)c1` (stereo partly shown) [DPMA], the “Z Score” value stood at 0.03628. This molecule also registered a Z score under setting [9] of 0.036. In addition, under setting [10], the Activity entry is listed as “no”.

As to `COc1cccc(NC(=O)/C=C/c2ccc(Cl)cc2)c1` [SB-366791], the “Z Score” value is listed as −1.419. This molecule also showed a Z score under setting [2] of −1.419. For the same molecule, the Activity entry under setting [3] is given as “no”.

As to `CC(=O)OCC1=C(C(=O)O)N2C(=O)[C@@H](NC(=O)CSc3ccncc3)[C@H]2SC1` [Cephapirin sodium], the “Z Score” value under setting [1] amounted to 0.6219. Also, under setting [2], the Z score was determined as 0.622. Also, the Activity entry under setting [11] was “no”.

As for `CN(Cc1cnc2nc(N)nc(N)c2n1)c1ccc(C(=O)N[C@@H](CCC(=O)O)C(=O)O)cc1` [Methotrexate], under setting [4], the “Z Score” value is on record as −10.2. Under setting [2], the Z score is −10.203. In addition, the Activity entry under setting [11] was “yes”.

Under setting [2], `CN1CCc2cc(O)cc3c2[C@H]1Cc1ccc(O)c(O)c1-3` [R(−)-2,10,11-Trihydroxyaporphine] yielded a Z score of −3.309. Besides, under setting [11], the Activity result is on record as “yes”.

In the case of `NC(Cc1ccc(Cl)cc1)C(=O)O` (stereo not shown) [(B1)-p-Chlorophenylalanine], the “Z Score” value is given as −0.2471.

In the case of `CC(N)C(O)c1ccc(O)c(O)c1` (single isomer, unassigned; (-)) [(−)-alpha-Methylnorepinephrine], the “Z Score” value came out at 1.193. The molecule also came in with a Z score under setting [9] of 1.193. For the same molecule, the Activity entry under setting [10] is “no”.

As for `CC[C@H]1CN2CCc3cc(OC)c(OC)cc3[C@@H]2C[C@@H]1C[C@H]1NCCc2cc(OC)c(OC)cc21` [Emetine dihydrochloride hydrate], the Activity entry is on record as “yes”. Also, the “Z Score” value under setting [4] was −10.63. Under setting [2], this molecule displayed a Z score of −10.633.

Consider `O=C1NC(=O)C(c2ccccc2[N+](=O)[O-])=C1Nc1ccc(O)c(Cl)c1` [SB 415286], for which the “Z Score” value was −2.87. Also, under setting [2], the Z score is recorded as −2.870.

As to `CN1CCN2c3ccccc3Cc3ccccc3C2C1` (stereo not shown) [Mianserin hydrochloride], the Activity entry is listed as “no”. In addition, the “Z Score” value under setting [1] turned out to be 0.9746. Under setting [2], the Z score is reported as 0.975.

Regarding `c1ccc2cc(-c3ncc[nH]3)ccc2c1` [Benazoline oxalate], the “Z Score” value under setting [6] is −0.3348. Moreover, the Z score under setting [9] is on record as −0.335. Also, the Activity result under setting [10] is recorded as “no”.

For `C[C@@H]1C(=O)NC2=Nc3cccc(Cl)c3CN21` [Quazinone], the “Z Score” value under setting [1] was found to be 0.2046. Besides, the Z score under setting [2] came to 0.205. Besides, the Activity entry under setting [3] is given as “no”.

Turning to `COc1cccc(-c2cc(=O)c3ccccc3o2)c1N` [PD 98,059], the Activity entry is “no” and the “Z Score” value is 0.9027. This molecule returned a Z score under setting [2] of 0.903.

For `CN1C[C@H](CNC(=O)OCc2ccccc2)C[C@@H]2c3cccc4c3c(cn4C)C[C@H]21` [Metergoline (39), Metergoline, reference compound], the “Z Score” value under setting [4] is −4.342. In addition, the Z score under setting [2] is on record as −4.342. The Activity result under setting [11] is “yes”.

On to `Oc1c2ccccc2c2c3c(cccc13)N=N2` [SP600125], for which the “Z Score” value under setting [4] is −1.986. This molecule showed a Z score under setting [9] of −1.986.

On to `CC(C)[N+](C)(CCOC(=O)C1c2ccccc2Oc2ccccc21)C(C)C` [Propantheline bromide], for which, under “168 h, 3 µM”, the “Z Score” value was −1.534 and the Z score was −1.534. Also, the Activity result under setting [3] is listed as “no”.

Take `N[C@H](C(=O)O)[C@H]1C[C@@H]1C(=O)O`: the “Z Score” value turned out to be 1.233. This molecule also showed a Z score under setting [9] of 1.233. Moreover, the Activity result under setting [10] is “no”.

Turning to `CC(C)(C)[C@]1(O)CCN2C[C@H]3c4ccccc4CCc4cccc(c43)[C@@H]2C1.Cl` [(B1)-Butaclamol hydrochloride], the “Z Score” value was −5.934.

As for `O=[N+]([O-])c1cccc2c(Br)n[nH]c12` [3-Bromo-7-nitroindazole], under “168 h, 3 µM”, the “Z Score” value is listed as −1.68 and the Z score was −1.680. In addition, the Activity entry under setting [8] is “no”.

Take `O=C1NCN(c2ccccc2)C12CCN(CCCC(c1ccc(F)cc1)c1ccc(F)cc1)CC2` [Fluspirilene]: the Activity result is recorded as “no”. Also, the “Z Score” value (LOPAC library screen at 3 μM, MTT, secondary neurosphere cultures, screened in singlets) was found to be 1.589. Under setting [2], the Z score turned out to be 1.589.

With `CC(C)(C)c1cc(/C=C(\C#N)C(N)=S)cc(C(C)(C)C)c1O` [Tyrphostin AG 879], under setting [4], the “Z Score” value is listed as −1.607. Also, the Z score under setting [7] is reported as −1.607. The Activity entry under setting [8] is “no”.

Consider `N.N.N.N.N.N.N.N.N.N.N.N.N.N.[Cl-].[Cl-].[Cl-].[Cl-].[Cl-].[Cl-].[O-2].[O-2].[Ru+3].[Ru+3].[Ru+4]` [Ruthenium red], for which the “Z Score” value is on record as −0.07388. In addition, the Z score under setting [2] is listed as −0.074. The Activity result under setting [3] was “no”.

Consider `NC(CO)(CO)CO.O=C(c1ccccc1)c1ccc2n1CCC2C(=O)O` (stereo not shown) [Ketorolac tris salt], for which the “Z Score” value under setting [6] was −0.7256. In addition, the Z score under setting [2] is on record as −0.726. Moreover, the Activity result under setting [10] is “no”.

`N[C@H](CO)C(=O)O` [D-Serine]: the “Z Score” value under setting [6] is recorded as −0.1429. In addition, the Z score under setting [2] is −0.143. Moreover, the Activity result under setting [3] is “no”.

Take `C=CC[N+](C)(C)c1ccc(CCC(=O)CCc2ccc([N+](C)(C)CC=C)cc2)cc1.[Br-].[Br-]` [BW 284c51]: the “Z Score” value was −0.4017. Further, under setting [7], the Z score was −0.402. In addition, the Activity entry under setting [8] was “no”.

Turning to `C[N+]1(C)[C@@H]2C[C@@H](OC(=O)[C@H](CO)c3ccccc3)C[C@H]1[C@@H]1O[C@@H]12.[Br-]` [(−)-Scopolamine methyl bromide], the “Z Score” value is recorded as −0.8468. For the same molecule, the Z score under setting [2] is listed as −0.847. For the same molecule, the Activity entry under setting [3] was “no”.

For `CCC(=O)N1CCN(C(=O)c2ccccc2)CC1` [DM 235], the “Z Score” value is recorded as −2.019. This molecule showed a Z score under setting [9] of −2.019. The Activity entry under setting [10] is recorded as “no”.

Turning to `CCCCOc1cc(CC2CNC(=O)N2)ccc1OC` (racemic) [Ro 20-1724], the “Z Score” value was found to be 0.5874. Under setting [9], this molecule registered a Z score of 0.587. Also, the Activity entry under setting [10] was “no”.

Take `OCCN(CCO)c1nc(N2CCCCC2)c2nc(N(CCO)CCO)nc(N3CCCCC3)c2n1` [Dipyridamole]: the Activity entry is given as “no”. Also, under setting [6], the “Z Score” value is on record as −0.7267. Also, under setting [9], the Z score is recorded as −0.727.

For the molecule `COC(=O)c1c(-c2cc(OC)c(OC)c(OC)c2)c2ccc(OCc3ccccn3)cc2c(=O)n1-c1ccc(N)cc1` [T-1032], the “Z Score” value is −2.02. In addition, under setting [7], the Z score was −2.020. In addition, the Activity result under setting [8] is listed as “no”.

In the case of `Cc1cc(C(C)(C)C)cc(C)c1CC1=NCCN1` [Xylometazoline hydrochloride], the “Z Score” value is reported as 0.296. Under setting [7], this molecule returned a Z score of 0.296. The Activity result under setting [8] is recorded as “no”.

For `COC(=O)Nc1nc2ccc(C(=O)c3cccs3)cc2[nH]1` [Nocodazole], under setting [6], the “Z Score” value was −0.1891. This molecule came in with a Z score under setting [2] of −0.189. In addition, the Activity entry under setting [5] is reported as “no”.

For the molecule `Cl.NCC#Cc1ccccc1` [3-Phenylpropargylamine hydrochloride], the “Z Score” value is −2.043. For the same molecule, under setting [2], the Z score is reported as −2.043. The Activity result under setting [3] was “no”.

`CCCCCCCC/C=C\CCCCCCCC(=O)NCCc1ccc(O)c(O)c1` [N-Oleoyldopamine]: for the setting “168 h, 3 µM”, the “Z Score” value turned out to be 0.4633 and the Z score stood at 0.463. Moreover, under setting [3], the Activity entry was “no”.

`Oc1cc(-c2ccccc2)nc2nc(Cl)ccc12` [7-Chloro-4-hydroxy-2-phenyl-1,8-naphthyridine]: for the setting “168 h, 3 µM”, the “Z Score” value is −0.401 and the Z score is −0.401. Under setting [10], the Activity entry is recorded as “no”.
